# Laboratory results published in US9890175B2, “Taxane compound, and preparation method and use thereof” (JIANGSU TASLY DIYI PHARMACEUTICAL CO., LTD., priority 2013, dated 2018).
# Where two headings read alike, the source gives them in different places.
# Tests used:
# [1] = Caco-2 cell monolayer membrane transport assay (Papp and recovery); format: in vitro ADME; details: human; for Papp B→A: Caco-2, Papp B-A
# Description: Caco-2 Cell Monolayer Membrane Transport Assay
# Human-derived colorectal adenocarcinoma cell line Caco-2 cell monolayer model was used to study the bidirectional transport of the target compounds from the apical (AP) side to the basolateral (BL) side and from BL side to AP side. HPLC was used for quantitative analysis to calculate transport parameters, apparent permeability coefficient (Papp) and the efflux ratio.
# Hela cervical cancer = assay: MTT proliferation inhibition, HeLa; format: cell-based; details: Homo sapiens, read-out: Proliferation inhibition rate, HeLa Uterin cancer
# Text: (§1) 1. Cytotoxicity Assay Using Human Tumor Cell Lines
# (§2) Paclitaxel was used as the positive drug.
# A375 melanoma = assay: MTT proliferation inhibition, A375; format: cell-based; details: Homo sapiens, A-375, read-out: Proliferation inhibition rate, A375 Melanoma
# Text: as §1, §2
# HL-60 leukemia = assay: MTT proliferation inhibition, HL-60; format: cell-based; details: Homo sapiens, HL-60, read-out: Proliferation inhibition rate, HL60 Leukemia
# Text: as §1, §2
# A2780 ovarian cancer = assay: MTT proliferation inhibition, A2780; format: cell-based; details: Homo sapiens, A2780, read-out: Proliferation inhibition rate, A2780 Ovarian cancer
# Text: as §1, §2
# HT-29 colon cancer = assay: MTT proliferation inhibition, HT-29; format: cell-based; details: Homo sapiens, HT-29, read-out: Proliferation inhibition rate, HT29 Colon cancer
# Text: as §1, §2
# [2] = test system: breast cancer cell line MCF-7; assay: IC50 on breast cancer cell line MCF-7; format: cell-based; details: Homo sapiens, MCF7, 72 h, read-out: MCF-7 (IC50, nM)
# Description: From the activity evaluation data of the above-mentioned preliminary screen, it can be seen that the series of taxanes derivatives synthesized in the present invention have activity. Afterward, the compounds are investigated to examine their IC50 values on breast cancer cell line MCF-7. […] Experiments for each compound were independently repeated for three times and multiple holes were used in each experiment. The exposure time of drugs was 72 hours.
# [3] = test system: NCI-H460 non-small cell lung cancer; assay: MTT proliferation inhibition, NCI-H460; format: cell-based; details: Homo sapiens, NCI-H460, read-out: Proliferation inhibition rate, NCI-H460 Non-small cell lung cancer
# Text: as §1, §2
# LN-18 = assay: MTT proliferation inhibition, LN-18; format: cell-based; details: Homo sapiens, LN-18, read-out: Proliferation inhibition rate, LN-18 Gastric canser
# Text: as §1, §2
# K562 leukemia = assay: MTT proliferation inhibition, K562; format: cell-based; details: Homo sapiens, K562, read-out: Proliferation inhibition rate, K562 Leukemia
# Text: as §1, §2
# BGC-823 gastric cancer = assay: MTT proliferation inhibition, BGC-823; format: cell-based; details: Homo sapiens, BGC-823, read-out: Proliferation inhibition rate, BGC-823 Gastric cancer
# Text: as §1, §2
# [4] = test system: A549 non-small cell lung cancer; assay: MTT proliferation inhibition, A549; format: cell-based; details: Homo sapiens, A549, read-out: Proliferation inhibition rate, A549 Non-small cell lung cancer
# Text: as §1, §2
# HCT 116 colon cancer = assay: MTT proliferation inhibition, HCT 116; format: cell-based; details: Homo sapiens, HCT-116, read-out: Proliferation inhibition rate, HCT 116 Colon cancer
# Text: as §1, §2
# [5] = test system: MDA-MB-436 breast cancer cells; assay: MTT proliferation inhibition, MDA-MB-436; format: cell-based; details: Homo sapiens, MDA-MB-436, read-out: Proliferation inhibition rate, MDA-MB-436 Breast cancer
# Text: as §1, §2
# Du145 prostate cancer = assay: MTT proliferation inhibition, Du145; format: cell-based; details: Homo sapiens, DU-145, read-out: Proliferation inhibition rate, DU145 Prostate cancer
# Text: as §1, §2
# LNCaP prostate cancer = assay: MTT proliferation inhibition, LNCaP; format: cell-based; details: Homo sapiens, read-out: Proliferation inhibition rate, LNCaP Prostate cancer
# Text: as §1, §2
# B16 melanoma = assay: MTT proliferation inhibition, B16; format: cell-based; details: B16, read-out: Proliferation inhibition rate, B16 Melanoma
# Text: as §1, §2
# [6] = test system: MCF-7 breast cancer cells; assay: MTT proliferation inhibition, MCF-7; format: cell-based; details: Homo sapiens, MCF7, read-out: Proliferation inhibition rate, MCF-7 Breast cancer
# Text: as §1, §2
# [7] = Caco-2, Recovery rate in mass, Mean
# [8] = Caco-2, Recovery rate in mass, Sample-01
# [9] = Caco-2, Recovery rate in mass, Sample-02
# [10] = Caco-2, Caco-2, A-B, Mean, read-out: Recovery rate in mass, Mean
# [11] = Caco-2, Caco-2, A-B, Sample-01, read-out: Papp A-B, Sample-01
# [12] = Caco-2, Caco-2, A-B, Sample-01, read-out: Recovery rate in mass, Sample-01
# [13] = Caco-2, Caco-2, A-B, Sample-02, read-out: Papp A-B, Sample-02
# [14] = Caco-2, Caco-2, A-B, Sample-02, read-out: Recovery rate in mass, Sample-02
# [15] = Caco-2, Caco-2, A-B, Mean, read-out: Papp A-B, Mean
SMILES,inhibition at 1 µM (Hela cervical cancer),inhibition at 1 µM (A375 melanoma),inhibition at 1 µM (HL-60 leukemia),inhibition at 1 µM (A2780 ovarian cancer),inhibition at 1 µM (HT-29 colon cancer),IC50 [2],inhibition at 1 µM [3],inhibition at 1 µM (LN-18),inhibition at 1 µM (K562 leukemia),inhibition at 1 µM (BGC-823 gastric cancer),inhibition at 1 µM [4],inhibition at 1 µM (HCT 116 colon cancer),"recovery [1, 10]","Papp A→B [1, 11]","recovery [1, 12]","Papp A→B [1, 13]","recovery [1, 14]",inhibition at 1 µM [5],inhibition at 1 µM (Du145 prostate cancer),inhibition at 1 µM (LNCaP prostate cancer),further results
"CC[C@H]1OC(=O)[C@H](C)[C@@H](O[C@H]2C[C@@](C)(OC)[C@@H](O)[C@H](C)O2)[C@H](C)[C@@H](O[C@@H]2O[C@H](C)C[C@H](N(C)C)[C@H]2O)[C@](C)(O)C[C@@H](C)C(=O)[C@H](C)[C@@H](O)[C@]1(C)O [Erythromycin, reference compound]",,,,,,,,,,,,,,,,,,,,,"recovery [1, 7]: 99%; recovery [1, 8]: 99.6%; recovery [1, 9]: 98.5%"
"COCCc1ccc(OCC(O)CNC(C)C)cc1 (stereo not shown) [Metoprolol, reference compound]",,,,,,,,,,,,,,,,,,,,,"Papp A→B ([1]; Caco-2, Papp A-B, Mean): 27.2 ×10⁻⁶ cm/s; Papp A→B ([1]; Caco-2, Papp A-B, Sample-01): 28.1 ×10⁻⁶ cm/s; Papp A→B ([1]; Caco-2, Papp A-B, Sample-02): 26.2 ×10⁻⁶ cm/s; Papp B→A ([1]; Mean): 22.7 ×10⁻⁶ cm/s; Papp B→A ([1]; Sample-01): 22.4 ×10⁻⁶ cm/s; Papp B→A ([1]; Sample-02): 23 ×10⁻⁶ cm/s; recovery [1, 7]: 99%; recovery [1, 8]: 103%; recovery [1, 9]: 95.5%"
CO[C@H]1C(=O)[C@]2(C)[C@@H](OC)C[C@H]3OC[C@@]3(OC(C)=O)[C@H]2[C@H](OC(=O)c2ccccc2)[C@]23OC(=O)O[C@H]2[C@H](OC(=O)[C@H](O)[C@@H](NC(=O)c2ccccc2)c2ccccc2)C(C)=C1C3(C)C [PCMI-02],98.2%,89.8%,95.9%,94.7%,89%,6.93 ± 0.12 nM,82.2%,96.6%,94.7%,94.2%,79.6%,66.4%,50.8%,1.5 ×10⁻⁶ cm/s,44.1%,1.47 ×10⁻⁶ cm/s,57.4%,82.6%,84.7%,83.7%,inhibition at 1 µM (B16 melanoma): 84.1%; inhibition at 1 µM [6]: 93.5%
CO[C@H]1C(=O)[C@]2(C)[C@@H](OC)C[C@H]3OC[C@@]3(OC(C)=O)[C@H]2[C@H](OC(=O)c2ccccc2)[C@]23OC(=O)O[C@H]2[C@H](OC(=O)[C@H](O)[C@H](CC(C)C)NC(=O)OC(C)(C)C)C(C)=C1C3(C)C [PCMI-05],99.5%,87.9%,97.2%,94.6%,87.9%,4.04 ± 0.18 nM,82%,93.3%,91.4%,90.9%,67.8%,58.7%,54.7%,2.59 ×10⁻⁶ cm/s,58.1%,2.56 ×10⁻⁶ cm/s,51.3%,74.5%,83.9%,81.6%,inhibition at 1 µM (B16 melanoma): 71.5%; inhibition at 1 µM [6]: 84.9%
CO[C@H]1C(=O)[C@@]2(C)[C@H]([C@H](OC(=O)c3ccccc3)[C@]34OC(=O)O[C@H]3[C@H](OC(=O)[C@H](O)[C@@H](NC(=O)OC(C)(C)C)c3ccccc3)C(C)=C1C4(C)C)[C@]1(OC(C)=O)CO[C@@H]1C[C@@H]2O [PCMI-06],99.9%,94.4%,97.7%,96%,87.3%,16.24 ± 0.08 nM,84.7%,94.6%,93.3%,93.6%,75.5%,67.1%,112%,1.31 ×10⁻⁶ cm/s,128%,1.13 ×10⁻⁶ cm/s,96.6%,77.8%,89.1%,83.6%,"Papp A→B [1, 15]: 1.22 ×10⁻⁶ cm/s; inhibition at 1 µM (B16 melanoma): 80.7%; inhibition at 1 µM [6]: 86.3%"
CO[C@H]1C[C@H]2OC[C@@]2(OC(C)=O)[C@H]2[C@H](OC(=O)c3ccccc3)[C@]34OC(=O)O[C@H]3[C@H](OC(=O)[C@H](O)[C@H](CC(C)C)NC(=O)OC(C)(C)C)C(C)=C([C@@H](OC(=O)N(C)C)C(=O)[C@]12C)C4(C)C [PCMI-10],99.9%,94.2%,97.5%,95%,86.2%,6.44 ± 0.18 nM,81%,93.7%,90.6%,91.2%,70.5%,65.6%,37.3%,1.25 ×10⁻⁶ cm/s,34%,0.89 ×10⁻⁶ cm/s,40.5%,77.3%,88%,85.9%,inhibition at 1 µM (B16 melanoma): 71.4%; inhibition at 1 µM [6]: 85.9%
CO[C@H]1C[C@H]2OC[C@@]2(OC(C)=O)[C@H]2[C@H](OC(=O)c3ccccc3)[C@]34OC(=O)O[C@H]3[C@H](OC(=O)[C@H](O)[C@@H](NC(=O)N(C)C)c3ccccc3)C(C)=C([C@@H](OC(=O)N(C)C)C(=O)[C@]12C)C4(C)C [PCMI-11],99.6%,92.4%,97.9%,94.6%,85.9%,4.25 ± 0.06 nM,82.2%,92.9%,92.1%,90.6%,72.3%,64.3%,79.9%,1.24 ×10⁻⁶ cm/s,79.7%,1.02 ×10⁻⁶ cm/s,80.2%,79%,87.2%,86.5%,"Papp A→B [1, 15]: 1.13 ×10⁻⁶ cm/s; inhibition at 1 µM (B16 melanoma): 72.6%; inhibition at 1 µM [6]: 82.4%"
